Values after ≈ are worked out from the molar mass of the structure shown. Active and inactive are the calls of the source. The calls are words filed in the database; no cut-off is given here.
How the values were obtained:
[1] = target: Sphingosine 1-phosphate receptor 1 (Homo sapiens, UniProt P21453); test: Agonist activity against S1P1 receptor by cell based FRET assay; assay type: functional
[2] = Percentage unbound in human plasma; assay type: ADME, cell-free
[3] = Solubility of the compound; assay type: physicochemical
Mus musculus [4] = test: Antiinflammatory activity in C57BL/6 mouse EAE model assessed as decrease in clinical symptoms at 1 mg/kg, po administered qd after 10 days post immunization; assay type: functional, organism-based; design: dose 1 mg/kg
Mus musculus [5] = test: Decrease in lymphocyte count in mouse acute lymphopenia model at 1 mg/kg, po after 24 hrs by flow cytometry relative to base line; assay type: functional; design: scale not given: the % may be the effect or the level left
[6] = Ratio of drug level in brain to blood in C57BL/6 mouse at 2 mg/kg, ip after 4 hrs; assay type: ADME, organism-based; design: dose 2 mg/kg, route intraperitoneal
[7] = target: Sphingosine 1-phosphate receptor 3 (Homo sapiens, UniProt Q99500); test: Agonist activity against S1P3 receptor by cell based FRET assay; assay type: functional
[8] = AUC (0 to 24 hrs) in mouse; assay type: ADME, organism-based; design: time < 24 hr; conditions: plasma
Cytochrome P450 2C9 = Cytochrome P450 2C9 (Homo sapiens, UniProt P11712); test: Inhibition of CYP2C9; assay type: ADME
[9] = Ratio of drug level in brain to blood in C57BL/6 mouse at 2 mg/kg, ip after 1 hr; assay type: ADME, organism-based; design: dose 2 mg/kg, route intraperitoneal
[10] = Half life in mouse; assay type: ADME, organism-based; conditions: in vivo
[11] = Permeability of the compound; assay type: ADME; conditions: not told; read-out: permeability
Mus musculus [12] = test: Decrease in lymphocyte count in mouse acute lymphopenia model at 1 mg/kg, po after 4 hrs by flow cytometry relative to base line; assay type: functional; design: scale not given: the % may be the effect or the level left
[13] = Oral bioavailability in mouse; assay type: ADME, organism-based; conditions: in vivo
Homo sapiens = species: Homo sapiens; test: Selectivity ratio of EC50 for S1P3 receptor to EC50 for S1P1 receptor
[14] = Percentage unbound in rat plasma; assay type: ADME, cell-free

Chain of Sphingosine 1-phosphate receptor 3 (Q99500 whole entry): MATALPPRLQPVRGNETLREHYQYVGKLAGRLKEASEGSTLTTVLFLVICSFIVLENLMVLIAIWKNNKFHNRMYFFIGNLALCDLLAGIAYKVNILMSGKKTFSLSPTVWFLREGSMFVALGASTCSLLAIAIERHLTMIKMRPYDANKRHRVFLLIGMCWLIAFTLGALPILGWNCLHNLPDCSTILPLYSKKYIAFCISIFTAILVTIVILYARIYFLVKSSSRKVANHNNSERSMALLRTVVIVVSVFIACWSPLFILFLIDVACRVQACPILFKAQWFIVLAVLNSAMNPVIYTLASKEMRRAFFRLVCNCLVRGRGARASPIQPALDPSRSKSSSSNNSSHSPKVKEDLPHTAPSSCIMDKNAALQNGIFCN
Chain of Cytochrome P450 2C9 (P11712 whole entry): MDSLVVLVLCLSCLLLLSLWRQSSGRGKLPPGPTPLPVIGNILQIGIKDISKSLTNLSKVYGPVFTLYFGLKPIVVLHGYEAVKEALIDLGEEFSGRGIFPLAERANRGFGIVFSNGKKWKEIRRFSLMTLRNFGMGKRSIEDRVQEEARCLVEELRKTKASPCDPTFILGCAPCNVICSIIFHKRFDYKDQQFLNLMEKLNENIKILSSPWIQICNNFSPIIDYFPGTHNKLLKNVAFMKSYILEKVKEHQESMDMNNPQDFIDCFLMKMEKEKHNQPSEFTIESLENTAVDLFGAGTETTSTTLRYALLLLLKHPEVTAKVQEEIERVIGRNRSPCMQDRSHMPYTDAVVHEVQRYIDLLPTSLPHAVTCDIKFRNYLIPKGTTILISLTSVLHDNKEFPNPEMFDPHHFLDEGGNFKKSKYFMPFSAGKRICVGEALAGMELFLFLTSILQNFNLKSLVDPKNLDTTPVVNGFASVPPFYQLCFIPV
Chain of Sphingosine 1-phosphate receptor 1 (P21453 whole entry): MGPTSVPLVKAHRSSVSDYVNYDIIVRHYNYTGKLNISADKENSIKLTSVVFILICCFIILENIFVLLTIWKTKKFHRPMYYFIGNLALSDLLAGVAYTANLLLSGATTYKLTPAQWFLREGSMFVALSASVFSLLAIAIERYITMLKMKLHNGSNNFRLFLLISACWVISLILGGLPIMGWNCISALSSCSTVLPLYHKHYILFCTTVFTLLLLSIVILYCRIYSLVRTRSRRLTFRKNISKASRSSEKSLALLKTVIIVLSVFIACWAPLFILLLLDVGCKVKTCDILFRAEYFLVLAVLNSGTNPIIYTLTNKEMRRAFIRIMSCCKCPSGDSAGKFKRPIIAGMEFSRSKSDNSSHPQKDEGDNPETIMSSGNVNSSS

Row | SMILES | EC50 [1] [nM] | fraction unbound [2] | EC50 [7] [nM] | other results
1 | CCc1c(CCCC(=O)O)cccc1-c1ccc(-c2ccc(OC(C)C)c(C#N)c2)nn1 | 631 |  |  | 
2 | CCc1c(CCCC(=O)O)cccc1-c1nc(-c2ccc(OC(C)C)c(C#N)c2)ns1 | 1.26 |  |  | 
3 | CCc1c(CCCC(=O)O)cncc1-c1nsc(-c2ccc(OC(C)C)c(C(F)(F)F)c2)n1 | 25.1 | 0.0012 |  | 
4 | CCc1c(CCCC(=O)O)cccc1-c1cnc(-c2ccc(OC(C)C)c(C#N)c2)[nH]1 | > 10000 |  |  | 
5 | CCc1c(CCCC(=O)O)cccc1-c1ccnc(-c2ccc(OC(C)C)c(C#N)c2)n1 | > 3160 |  |  | 
6 | CCc1c(CCCC(=O)O)cccc1-c1nsc(-c2ccc(OC(C)C)c(C#N)c2)n1 | 2.51 | 0.0021 | > 10000 | solubility [3]: 160 µg/mL (≈ 367 µM); Activity (Mus musculus [4]): Active; Activity (Mus musculus [5]): 87.9%; Kp at 4 h [6]: 0.52; AUC(0-t) at 24 h [8]: 2600 ng·h/mL; IC50 (Cytochrome P450 2C9): 5010 nM; Kp at 1 h [9]: 0.36; half-life [10]: 1.5 h; Papp [11]: 32 ×10⁻⁶ cm/s; Activity (Mus musculus [12]): 22.7%; bioavailability [13]: 87%
7 | CCc1c(CCCC(=O)O)cccc1-c1cc(-c2ccc(OC(C)C)c(C#N)c2)n[nH]1 | > 10000 |  |  | 
8 | CCc1c(CCN2CC(C(=O)O)C2)cccc1-c1nsc(-c2ccc(OC(C)C)c(Cl)c2)n1 | 0.251 | 0.0067 | > 3160 | Ratio EC50 (Homo sapiens): > 1000
9 | CCc1c(CCCC(=O)O)cccc1-c1cccc(-c2ccc(OC(C)C)c(C#N)c2)n1 | > 3160 |  |  | 
10 | CCc1c(CCCC(=O)O)cccc1-c1nsc(-c2ccc(OC(C)C)c(Cl)c2)n1 | 3.98 | 0.0015 |  | 
11 | CCc1c(CCN2CCC(C(=O)O)CC2)cccc1-c1nsc(-c2ccc(OC(C)C)c(C(F)(F)F)c2)n1 | 0.1 | 0.0017 | 2510 | Ratio EC50 (Homo sapiens): > 1000
12 | CCc1c(CCCC(=O)O)cncc1-c1nsc(-c2ccc(OC(C)C)c(Cl)c2)n1 | 251 | 0.0019 |  | 
13 | CCc1c(CCCC(=O)O)cccc1-c1ccn(-c2ccc(OC(C)C)c(C#N)c2)n1 | 2510 |  |  | 
14 | CCc1c(CCCC(=O)O)cccc1-c1ccc(-c2ccc(OC(C)C)c(C#N)c2)cn1 | 31.6 |  |  | 
15 | CCc1c(CN(C)C(C)(C)C(=O)O)cccc1-c1nsc(-c2ccc(OC(C)C)c(C(F)(F)F)c2)n1 | 100 | 4e-05 | > 10000 | Ratio EC50 (Homo sapiens): > 1000
16 | CCc1c(CCCC(=O)O)cccc1-c1nsc(-c2ccc(N3CCN(C)CC3)c(C(F)(F)F)c2)n1 | > 3160 |  |  | fraction unbound [14]: 0.0032
17 | CCc1c(CCN2CC(C(=O)O)C2)cccc1-c1nsc(-c2ccc(CC(C)C)c(C#N)c2)n1 | 0.794 | 0.0071 | 2510 | Ratio EC50 (Homo sapiens): > 1000
18 | CCc1c(CCCC(=O)O)cccc1-c1nsc(-c2ccc(CC(C)C)c(C#N)c2)n1 | 1.26 | 0.0003 |  | 
19 | CCc1c(CCCC(=O)O)cccc1-c1cc(-c2ccc(OC(C)C)c(C#N)c2)ncn1 | > 3160 |  |  | 
20 | CCc1c(CCCC(=O)O)cccc1-c1ccc(-c2ccc(OC(C)C)c(C#N)c2)s1 | 3.98 |  | > 10000 | solubility [3]: 115 µg/mL (≈ 265 µM); Kp at 4 h [6]: 1.5; IC50 (Cytochrome P450 2C9): 1580 nM; fraction unbound [14]: 0.0002; Kp at 1 h [9]: 1; Papp [11]: 30 ×10⁻⁶ cm/s
21 | CCc1c(CCNCC(=O)O)cccc1-c1nsc(-c2ccc(OC(C)C)c(C(F)(F)F)c2)n1 | 0.0158 | 0.0013 | > 3160 | Ratio EC50 (Homo sapiens): > 1000
22 | CCc1c(CCCC(=O)O)cncc1-c1nsc(-c2ccc(CC(C)C)c(C#N)c2)n1 | 398 | 0.0014 |  | 
23 | CCc1c(CCCC(=O)O)cccc1-c1nsc(-c2ccc(N3CCCCC3)c(C(F)(F)F)c2)n1 | 2 | 1e-05 |  | 

Row | SMILES | EC50 [1] [nM] | fraction unbound [2] | EC50 [7] [nM] | other results
24 | CCc1c(CCCC(=O)O)cccc1-c1nsc(-c2cnc(OC(C)C)c(C(F)(F)F)c2)n1 | 5.01 | 0.00031 |  | 
25 | CCc1c(CCCC(=O)O)cccc1-c1cnn(-c2ccc(OC(C)C)c(C#N)c2)c1 | 631 |  |  | 
26 | CCc1c(-c2nsc(-c3ccc(CC(C)C)c(C#N)c3)n2)ccnc1CCCC(=O)O | 158 | 0.0019 |  | 
27 | CCc1c(CCCC(=O)O)cccc1-c1nsc(-c2ccc(-c3ccccc3)c(C(F)(F)F)c2)n1 | 5.01 |  |  | 
28 | CCc1c(CN2CC(C(=O)O)C2)cccc1-c1nsc(-c2ccc(OC(C)C)c(C(F)(F)F)c2)n1 | 0.251 | 0.0026 | 2510 | Ratio EC50 (Homo sapiens): > 1000
29 | CCc1c(CCCC(=O)O)cccc1-c1ccc(-c2ccc(OC(C)C)c(C#N)c2)nc1 | 31.6 |  |  | 
30 | CCc1c(CCN(C)CC(=O)O)cccc1-c1nsc(-c2ccc(OC(C)C)c(C(F)(F)F)c2)n1 | 0.02 | 0.0021 | > 3160 | Ratio EC50 (Homo sapiens): > 1000
31 | CCc1c(CCN2CC(O)C2)cccc1-c1nsc(-c2ccc(CC(C)C)c(C#N)c2)n1 | 200 | 0.00091 | > 3160 | 
32 | CCc1c(CCN2CC(C(=O)O)C2)cccc1-c1nsc(-c2ccc(OC(C)C)c(C(F)(F)F)c2)n1 | 0.251 | 0.0025 | 3160 | Ratio EC50 (Homo sapiens): > 1000
33 | CCc1c(CCCC(=O)O)cccc1-c1ccc(-c2ccc(OC(C)C)c(C#N)c2)cc1 | 1.58 |  | > 10000 | solubility [3]: 154 µg/mL (≈ 360 µM); Kp at 4 h [6]: 0.95; IC50 (Cytochrome P450 2C9): 3980 nM; fraction unbound [14]: 0.0001; Kp at 1 h [9]: 0.93; Papp [11]: 31 ×10⁻⁶ cm/s
34 | CCc1c(CCCC(=O)O)cccc1-c1ncc(-c2ccc(OC(C)C)c(C#N)c2)cn1 | 25.1 |  |  | 
35 | CCc1c(CN2CC(C(=O)O)C2)cccc1-c1nsc(-c2ccc(OC(C)C)c(Cl)c2)n1 | 3.98 | 0.0096 | > 3160 | Ratio EC50 (Homo sapiens): > 1000
36 | CCc1c(CCCC(=O)O)cccc1-c1nsc(-c2ccc(OC(C)C)c(C(F)(F)F)c2)n1 | 2 | 0.00014 |  | 
37 | CCc1c(CCN2CCCCC2)cccc1-c1nsc(-c2ccc(CC(C)C)c(C#N)c2)n1 | 1580 | 0.00017 | > 10000 | 
38 | CCc1c(CCCC(=O)O)cccc1-c1nccc(-c2ccc(OC(C)C)c(C#N)c2)n1 | > 3160 |  |  | 
39 | CCCCCCCCc1ccc(CCC(N)(CO)CO)cc1 |  |  |  | Activity (Mus musculus [4]): Active
40 | CCc1c(CN2CC(C(=O)O)C2)cccc1-c1nsc(-c2ccc(CC(C)C)c(C#N)c2)n1 | 7.94 | 0.0128 | > 3160 | Ratio EC50 (Homo sapiens): > 1000
41 | CCc1c(CCCC(=O)O)cccc1-c1nsc(-c2ccc(N3CCOCC3)c(C(F)(F)F)c2)n1 | 126 |  |  | fraction unbound [14]: 0.0006
42 | CCc1c(CCCC(=O)O)cccc1-c1nnc(-c2ccc(OC(C)C)c(C#N)c2)o1 | 3.16 |  | > 10000 | solubility [3]: 187 µg/mL (≈ 446 µM); Kp at 4 h [6]: 0.09; IC50 (Cytochrome P450 2C9): 7940 nM; fraction unbound [14]: 0.0021; Kp at 1 h [9]: 0.11; Papp [11]: 24 ×10⁻⁶ cm/s
43 | CCc1c(CCCC(=O)O)cccc1-c1cc(-c2ccc(OC(C)C)c(C#N)c2)no1 | 5.01 |  |  | 
44 | CCc1c(CN(C)CC(=O)O)cccc1-c1nsc(-c2ccc(OC(C)C)c(C(F)(F)F)c2)n1 | 10 | 0.0049 | > 10000 | Ratio EC50 (Homo sapiens): > 1000
45 | CCc1c(CN2CCC(C(=O)O)CC2)cccc1-c1nsc(-c2ccc(OC(C)C)c(C(F)(F)F)c2)n1 | 15.8 |  | > 10000 | Ratio EC50 (Homo sapiens): > 1000; fraction unbound [14]: 0.0038

Reference: ChEMBL document CHEMBL2057096, “Discovery of novel 1,2,4-thiadiazole derivatives as potent, orally active agonists of sphingosine 1-phosphate receptor subtype 1 (S1P(1))” (J Med Chem, 2012)
